One experiment has as its system A2780/DX5 cells. Description: cells. In kind it is cell-based, human. The procedure: (§1) Wild type human ovarian cancer cells (A2780/WT) and doxorubicin-resistant human ovarian cancer cells (A2780/DX5) were cultured in RPMI 1640 medium supplemented with 10% fetal bovine serum and 2 mM glutamine, and grown in a 37° C. incubator with 5% CO2. BNP1350 (also designated 7-[2-trimethylsilyl)ethyl]-20(S)-camptothecin; BNP1350; and Karenitecin®); BNP1394 (also designated 7-[2′-trimethylgermanyl]ethyl-20(S) camptothecin; Topotecan; and 9-NH2-camptothecin were synthesized and purified at BioNumerik Pharmaceuticals, Inc., and dissolved in DMSO for use in cytotoxicity experiments where inhibition of cell growth was measured using the sulforhodamine B (SRB) assay to assess cytotoxicity and absorbance at 570 nm (A570) in order to calculate the percentage of cell control (or percent cell survival) SRB assay. See. e.g., Skehan P., Stieng R., Scudiero D., et al. New colorimetric cytotoxicity assay for anticancer-drug screen. J. Natl. Cancer Inst. 82:1107-1112 (1990)).
(§2) Briefly, cells were seeded (500 cells/well in 100 μL volume) to 96-well microliter plates and allowed to attach for 24 hours prior to treatment with BNP1350, BNP1394, Topotecan, and 9-NH2-camptothecin for 2 hours. Following this 2 hour treatment, BNP1350, BNP1394, Topotecan, and 9-NH2-camptothecin were removed, cells were washed with drug-free media (200 μL) and then drug-free media (200 μL) was added to the cells and cells were allowed to continue growing at 37° C. with 5% CO2 before the SRB assay was performed (total experiment time from time of seeding was 5 days, during which a total of five (5) cell-doublings occurred).
(§3) Wild-type human ovarian cancer cells (A2780/WT) and doxorubicin-resistant human ovarian cancer cells (A2780/DX5) were cultured in RPMI 1640 medium supplemented with 10% fetal bovine serum and 2 mM L-glutamine, and grown in a 37° C. incubator with 5% CO2. Population doubling times for the two cell lines used in this study encompassed a total of five cell doublings corresponding to approximately 5 days for A2780/WT and A2780/DX5 cells. Both cell lines were maintained as monolayered cultures in T-25 or T-75 flasks and then seeded to microliter plate wells for experiments described herein.
(§4) In brief, cells were seeded (500 cells/well in 100 μL total volume) into 96-well microliter plates and allowed to attach for 24 hours prior to treatment with BNP1350, BNP1394, Topotecan, or 9-NH2-camptothecin for 2 hours. The aforementioned compounds were dissolved in DMSO for use in cytotoxicity experiments where inhibition of cell growth was measured using the SRB assay.
(§5) Following this 2 hour drug treatment, the BNP1350, BNP1394, Topotecan, and 9-NH2-camptothecin were removed, cells were washed with drug-free media (200 μL) and then drug-free media (200 μL) was added to the cells and cells were allowed to continue growing at 37° C. with 5% CO2 before the SRB assay was performed (total experiment time from time of seeding was 5 days, during which time a total of 5 cell doublings had occurred).
(§6) The sulforhodamine B (SRB) cytotoxicity assay (see, Skehan P, et al., New colorimetric cytotoxicity assay for anticancer-drug screening. J. Natl. Cancer Inst. 82:1107-1112 (1990)) was used to determine the cytotoxic effects of BNP1350, BNP10120 or BNP10121 on cell growth in vitro. Briefly, after the medium was aspirated from individual plate wells, trichloroacetic acid (100 μL of 10.0% solution) was added to each well, and the plates were incubated at 4° C. for at least 1 hour. The plates were washed five-times with water using an automated microplate washer (Model EL 404, Bio-Tek Instruments), SRB solution (100 μL of 0.4 grams SRB dissolved in 100 mL 1.0 percent acetic acid) was added, and plates remained at room temperature for 15 minutes. The plates were then washed five-times using acetic acid (1.0%), air dried, and bound dye was solubilized in Tris base (150 μL, 10 mM). […]

The next experiment has as its system A2780/WT cells. Put plainly: cells. Type of experiment: cell-based, human. The procedure:
as §1, §2, §3, §4, §5, §6

[1] abbreviates: 2 hour drug treatment, SRB at 5 days, read-out: IC50 Test 1.
Setting [2] is: 2 hour drug treatment, SRB at 5 days, read-out: IC50 Test 2.
Setting [3] is: 2 hour drug treatment, SRB at 5 days, read-out: IC50 Test 3.
Setting [4] is: 2 hour drug treatment, SRB at 5 days, read-out: IC50 Test 4.
The mark [5] stands for this setting: 2 hour drug treatment, SRB at 5 days, read-out: IC50 Test 5.
[6] abbreviates: average of the tests, read-out: IC50 Average.
The mark [7] stands for this setting: 2 hour drug treatment, SRB at 5 days, read-out: IC50 Test 6.
Setting [8] is: average of Tests 1-6, read-out: IC50 Average.
Where [9] appears, read: Homo sapiens, 2 hour drug treatment, SRB at 5 days, read-out: IC50 Test 1.
Where [10] appears, read: Homo sapiens, 2 hour drug treatment, SRB at 5 days, read-out: IC50 Test 2.
The mark [11] stands for this setting: Homo sapiens, 2 hour drug treatment, SRB at 5 days, read-out: IC50 Test 3.
The mark [12] stands for this setting: Homo sapiens, 2 hour drug treatment, SRB at 5 days, read-out: IC50 Test 4.
[13] abbreviates: Homo sapiens, 2 hour drug treatment, SRB at 5 days, read-out: IC50 Test 5.

pIC50: −log10 of the molar value. Read-outs that look alike come from different tables or passages of the source.

In general, pIC50 refers to −log10 of the IC50, conventionally taken in molar units. As for `CC[C@@]1(O)C(=O)OCc2c1cc1n(c2=O)Cc2cc3c(N)cccc3nc2-1` [9-NH2-camptothecin, 9-amino camptothecin], the “inhibition of cell growth (in words)” value with A2780/DX5 cells and with A2780/WT cells was “inhibitors” throughout. For the same compound, the pIC50 with A2780/DX5 cells (setting [1]) was 6.22; with A2780/DX5 cells (setting [2]) it was 6.60; with A2780/DX5 cells (setting [3]), 6.60; in the experiment on A2780/DX5 cells (setting [4]), 6.26; with A2780/DX5 cells (setting [5]), 6.22; with A2780/DX5 cells (setting [6]), 6.35. In addition, the pIC50 was 6.82 in the experiment on A2780/WT cells (setting [1]); 7.05 in the experiment with A2780/WT cells (setting [2]); 6.82 in the experiment on A2780/WT cells (setting [3]); 6.70 in the experiment with A2780/WT cells (setting [4]); 6.60 in the experiment with A2780/WT cells (setting [5]); 7.05 with A2780/WT cells (setting [7]). The pIC50 with A2780/WT cells (setting [8]) is 6.81.

For the compound `CC[C@@]1(O)C(=O)OCc2c1cc1n(c2=O)Cc2c-1nc1ccccc1c2CC[Si](C)(C)C` [BNP1350], the “IC50 values (in words)” value with A2780/DX5 cells and in the experiment on A2780/WT cells was “nanomolar” each time. For the same compound, the “inhibition of cell growth (in words)” value in the experiment on A2780/DX5 cells and with A2780/WT cells was “inhibitors” each time. Moreover, the negative logarithm of the IC50 (pIC50) in the experiment on A2780/DX5 cells (setting [1]) is 7.82; in the experiment on A2780/DX5 cells (setting [2]), 7.82; in the experiment with A2780/DX5 cells (setting [3]) it was 7.82; in the experiment with A2780/DX5 cells (setting [4]), 7.62; in the experiment on A2780/DX5 cells (setting [5]) it was 8.00; in the experiment with A2780/DX5 cells (setting [6]), 7.80. In addition, the pIC50 in the experiment with A2780/WT cells (setting [1]) is 7.82; in the experiment on A2780/WT cells (setting [2]), 7.82; in the experiment on A2780/WT cells (setting [3]) it was 7.82; in the experiment on A2780/WT cells (setting [4]), 7.70; in the experiment on A2780/WT cells (setting [5]) it was 7.89; with A2780/WT cells (setting [7]), 7.80. Also, the pIC50 in the experiment with A2780/WT cells (setting [8]) is 7.82.

As to `CC[C@@]1(O)C(=O)OCc2c1cc1n(c2=O)Cc2c-1nc1ccccc1c2C[CH2][Ge]([CH3])([CH3])[CH3]` [BNP1394, 7-[2′-trimethylgermanyl]ethyl-20(S) camptothecin], in the experiment with A2780/DX5 cells, the “IC50 values (in words)” value is listed as “nanomolar” and the “inhibition of cell growth (in words)” value is listed as “inhibitors”. In the experiment on A2780/WT cells, the “IC50 values (in words)” value was “nanomolar” and the “inhibition of cell growth (in words)” value is on record as “inhibitors”.

`CC[C@@]1(O)C(=O)OCc2c1cc1n(c2=O)Cc2cc3c(CN(C)C)c(O)ccc3nc2-1` [Topotecan, 9-dimethylaminomethyl-10-hydroxy camptothecin]: the “inhibition of cell growth (in words)” value in the experiment on A2780/DX5 cells and with A2780/WT cells was “inhibitors” in each case. The pIC50 is 6.26 in the experiment on A2780/DX5 cells (setting [9]); 6.10 in the experiment with A2780/DX5 cells (setting [10]); 5.70 with A2780/DX5 cells (setting [11]); 6.00 in the experiment with A2780/DX5 cells (setting [12]); 5.70 in the experiment on A2780/DX5 cells (setting [13]); 5.90 in the experiment on A2780/DX5 cells (Homo sapiens, average of the tests, read-out: IC50 Average). Moreover, the pIC50 in the experiment on A2780/WT cells (setting [9]) is 6.46; with A2780/WT cells (setting [10]) it was 6.70; in the experiment on A2780/WT cells (setting [11]), 6.52; with A2780/WT cells (setting [12]) it was 6.22; in the experiment with A2780/WT cells (setting [13]), 6.05; with A2780/WT cells (Homo sapiens, 2 hour drug treatment, SRB at 5 days, read-out: IC50 Test 6), 6.22. Further, the pIC50 in the experiment with A2780/WT cells (Homo sapiens, average of Tests 1-6, read-out: IC50 Average) is 6.31.

Source of the values: patent publication US20140073793A1, “Germanium-containing camptothecin analogues” (BioNumeric Pharmaceuticals, Inc., priority 2012, published 2014).
